Laboratory results published in US20230277508A1, “USE OF COMPOUND AS CYP2E1 INHIBITOR” (SHANGHAI LING XI BIOTECHNOLOGY DEVELOPMENT CO., LTD., priority 2020, published 2023).

Assays:
Assay type in all cases: biochemical
[1] = target: T1, human liver microsome CYP2E1 (Homo sapiens, UniProt P05181); experiment: Determination of IC50 for a CYP2E1 inhibitory effect (CZX probe, mixed liver microsome); conditions: for inhibitory effect on CYP2E1 (in words): in vitro, method of Example 8; for IC50: mixed liver microsome of healthy individuals 0.3 mg/mL, 62.5 μM CZX, 1 mM NADPH, 30 min, read-out: IC50 for 2E1 inhibition
T1 construct: metabolic activity of a mixed liver microsome CYP2E1 of a healthy individual; from tissue; host or cells: mixed (pooled) human liver microsomes of healthy individuals
Experimental: CZX was used as a probe substrate to detect an inhibitory effect of an inhibitor to be tested on the metabolic activity of a mixed liver microsome CYP2E1 of a healthy individual (IC50: half inhibition concentration; Ki: inhibition constant; the smaller the IC50 and the smaller the Ki, the higher the inhibition intensity of the inhibitor), thereby determining an inhibitory effect of the inhibitor to be tested on the human liver microsome CYP2E1.
An incubation system in a total volume of 100 μL was adopted, including a substrate, an inhibitor of different concentrations, a liver microsomal protein, and phosphate-buffered saline (PBS). The incubation system was pre-incubated in a 37° C. water bath for 5 min, reduced coenzyme was added to allow a reaction for 30 min, and then the reaction was terminated in an ice bath. In a specific experiment, a concentration of an inhibitor can be selected as required.
In this example, the incubation system includes 62.5 μM CZX, 100 mM (pH=7.4) PBS, 0.3 mg/mL liver microsomal protein, and 1 mM NADPH.
In this example, the reaction is terminated with 1 mL of ethyl acetate. In other preferred examples, the reaction may also be terminated with 1 mL of methyl tert-butyl ether (MTBE), 1 mL of diethyl ether, or 100 μL of methanol.

CYP2C9 = target: T2, CYP2C9 (Homo sapiens, UniProt P11712); experiment: Determination of selectivity of a CYP2E1 inhibitor: CYP2C9; conditions: mixed human liver microsome, 250 μM tolbutamide probe; read-out: IC50 of the inhibition for CYP2C9
T2 construct: With a mixed liver microsome of a healthy individual as a research object; from tissue; host or cells: mixed (pooled) human liver microsomes of healthy individuals
From the text: (§1) With a mixed liver microsome of a healthy individual as a research object, probe drugs CYP1A2, CYP2A6, CYP2B6, CYP2C8, CYP2C9, CYP2C19, CYP2D6, CYP2E1, and CYP3A4 were selected to determine an in vitro inhibitory effect of an inhibitor to be tested on the metabolism of the probe drugs CYP1A2, CYP2A6, CYP2B6, CYP2C8, CYP2C9, CYP2C19, CYP2D6, CYP2E1, and CYP3A4 for the mixed liver microsome of the healthy human, and the selectivity of the inhibitor to be tested for a CYP2E1 inhibitory effect was evaluated.
(§2) The CYP1A2 probe is 6.25 μM to 800 μM phenacetin or 27.5 μM to 12,520 μM caffeine; • the CYP2A6 probe is 0.156 μM to 20 μM coumarin or 12.5 μM to 2,000 μM nicotine; • the CYP2B6 probe is 7.8 μM to 500 μM bupropion or 0.25 mM to 30 mM cyclophosphamide; • the CYP2C8 probe is 2.5 μM to 80 μM paclitaxel or 0.125 μM to 128 μM amodiaquine; • the CYP2C9 probe is 31.25 μM to 2,000 μM tolbutamide or 0.1 μM to 200 μM diclofenac; • the CYP2C19 probe is 3.9 μM to 500 μM omeprazole or 1.95 μM to 1,000 μM mephenytoin; • the CYP2D6 probe is 0.625 μM to 96 μM dextromethorphan or 0.0195 μM to 80 μM propafenone; and • the CYP3A4 probe is 0.39 μM to 50 μM midazolam or 1.98 μM to 1,000 μM testosterone.
(§3) An incubation system in a total volume of 100 μL was adopted, including a substrate, an inhibitor of different concentrations, a liver microsomal protein, and PBS. […]

CYP2A6 = target: T3, CYP2A6 (Homo sapiens, UniProt P11509); experiment: Determination of selectivity of a CYP2E1 inhibitor: CYP2A6; conditions: mixed human liver microsome, 2.5 μM coumarin probe; read-out: IC50 for 2A6 inhibition
T3 construct: With a mixed liver microsome of a healthy individual as a research object; from tissue; host or cells: mixed (pooled) human liver microsomes of healthy individuals
From the text: as §1, §2, §3

T1 sequence (P05181 whole entry): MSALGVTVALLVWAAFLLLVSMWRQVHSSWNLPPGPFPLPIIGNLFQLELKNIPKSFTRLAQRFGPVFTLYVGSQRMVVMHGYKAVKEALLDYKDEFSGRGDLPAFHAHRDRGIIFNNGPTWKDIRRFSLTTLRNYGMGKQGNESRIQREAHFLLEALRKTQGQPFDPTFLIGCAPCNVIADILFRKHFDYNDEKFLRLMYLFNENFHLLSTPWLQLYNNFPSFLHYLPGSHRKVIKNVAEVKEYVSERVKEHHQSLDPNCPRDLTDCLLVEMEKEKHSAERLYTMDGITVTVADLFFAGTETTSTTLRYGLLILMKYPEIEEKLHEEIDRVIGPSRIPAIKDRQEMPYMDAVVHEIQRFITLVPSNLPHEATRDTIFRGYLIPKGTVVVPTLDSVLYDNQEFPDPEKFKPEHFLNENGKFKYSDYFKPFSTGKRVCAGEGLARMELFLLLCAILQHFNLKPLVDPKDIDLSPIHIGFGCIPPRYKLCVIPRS
T2 sequence (P11712 whole entry): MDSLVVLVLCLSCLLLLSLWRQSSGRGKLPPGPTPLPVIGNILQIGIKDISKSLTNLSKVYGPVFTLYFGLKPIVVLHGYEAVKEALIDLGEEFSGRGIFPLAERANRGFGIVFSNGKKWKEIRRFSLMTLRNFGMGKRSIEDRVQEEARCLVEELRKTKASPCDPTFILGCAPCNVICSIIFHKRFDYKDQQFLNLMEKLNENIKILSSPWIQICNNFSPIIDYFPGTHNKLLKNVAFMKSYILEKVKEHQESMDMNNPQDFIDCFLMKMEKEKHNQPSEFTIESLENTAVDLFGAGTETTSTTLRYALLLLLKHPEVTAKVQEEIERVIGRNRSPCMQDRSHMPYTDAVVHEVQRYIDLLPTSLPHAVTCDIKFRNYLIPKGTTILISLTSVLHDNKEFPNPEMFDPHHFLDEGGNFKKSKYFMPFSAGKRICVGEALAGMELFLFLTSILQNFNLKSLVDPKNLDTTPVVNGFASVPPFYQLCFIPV
T3 sequence (P11509 whole entry): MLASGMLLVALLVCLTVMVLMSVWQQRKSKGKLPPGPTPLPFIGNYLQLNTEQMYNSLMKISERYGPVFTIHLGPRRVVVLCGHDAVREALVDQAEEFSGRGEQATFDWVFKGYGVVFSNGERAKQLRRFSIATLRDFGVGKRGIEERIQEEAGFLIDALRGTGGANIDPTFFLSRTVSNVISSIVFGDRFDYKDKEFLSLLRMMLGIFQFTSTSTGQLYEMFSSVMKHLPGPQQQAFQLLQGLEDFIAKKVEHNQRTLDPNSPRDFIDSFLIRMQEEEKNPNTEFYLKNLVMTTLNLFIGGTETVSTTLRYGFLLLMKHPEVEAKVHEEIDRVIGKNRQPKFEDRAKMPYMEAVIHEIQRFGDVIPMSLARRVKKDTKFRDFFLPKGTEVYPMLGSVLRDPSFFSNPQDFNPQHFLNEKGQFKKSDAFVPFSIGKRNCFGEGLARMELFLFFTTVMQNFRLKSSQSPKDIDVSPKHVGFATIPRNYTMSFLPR

| SMILES | inhibitory effect on CYP2E1 (in words) [1] | IC50 [1] | IC50 (CYP2C9) | IC50 (CYP2A6) |
| --- | --- | --- | --- | --- |
| COc1cccc(/C=C/C(=O)c2scnc2C)c1 [SMI10] | slight inhibitory effect | 115 µM |  |  |
| CO/N=C(\C)c1scnc1C [SMI8] | significant inhibitory effect | 17 µM |  |  |
| CCc1nc(COC(=O)c2cccn2Cc2ccncc2)cs1 [SMI1] | significant inhibitory effect | 7.99 µM | 1.86 µM | 55.6 µM |
